Several values for one entry are separate records, joined by “and”; a condition that tells them apart may be missing. Equal values may be shown once. Read-outs that look alike come from different tables or passages of the source. Marks after values point to notes of the source that are not given here. Ends that are not written are not given here.
Assays:
[1] = tested on: Mycobacterium tuberculosis H37Rv (ATCC 27294); details: literature value ref Rastogi, et al., 1996 [55]; cited from earlier work
[2] = tested on: Escherichia coli (ATCC 25922)
human red blood cells = assay: Hemolytic assay; assay type: cell-based; details: 1 h at room temperature; for hemolysis of human erythrocytes: relative to 10% Triton X-100, average of at least four independent experiments; for IC50: human red blood cells, absorbance 570 nm, vs 10% Triton X-100, mean and 95% confidence intervals, NO = no observed hemolytic activity at 100 µM, read-out: Hemolysis (IC50)
Description: Hemolytic activity was determined by incubating suspensions of human red blood cells with serial dilutions of each selected peptides. Red blood cells were rinsed several times in PBS by centrifugation for 3 min at 3,000 g until the OD of the supernatant reached the OD of the control (PBS only). Red blood cells were counted by a hemocytometer and adjusted to 7.7×10^6±0.3×10^6 cells/mL. Red blood cells were then incubated at room temperature for 1 h in 10% Triton X-100 (positive control), in PBS (blank), or with amphipathic peptides at concentrations of 0.4, 0.8, 1.6, 3.1, 6.2, 12.5 and 25 µM, only for Pin2 [14] and Pin2 [17] the 50 and 100 µM concentrations were evaluated. The samples were then centrifuged at 10,000 g for 5 min, the supernatant was separated from the pellet, and its absorbance measured at 570 nm. The relative optical density compared to that of the suspension treated with 10% Triton X-100 was defined as the percentage of hemolysis.
The experimental values represent means ± standard deviations. The hemolytic constants (IC50) were obtained using a non-linear regression where the data was fit to a Boltzmann sigmoid equation. To determine statistically significant differences, an analysis of variance (ANOVA) followed by post hoc testing using the Tukey's method was performed using the software package Prism 4 (GraphPad, Inc., USA). Statistical significances were accepted at p<0.05.

[3] = tested on: Escherichia coli (ATCC 25922); details: ATCC 25922, 10 h
[4] = tested on: Staphylococcus aureus (ATCC 25923); details: ATCC 25923, 10 h
[5] = tested on: Staphylococcus aureus (ATCC 25923)
[6] = tested on: Mycobacterium tuberculosis H37Rv (ATCC 27294); details: 24 h

Compound | MIC Mycobacterium tuberculosis H37Rv [1] | MIC E. coli [2] [µM] | hemolysis of human erythrocytes (human red blood cells; peptide at 25 µM) [%] | MIC E. coli [3] | MIC S. aureus [4] | MIC S. aureus [5] [µM] | MIC Mycobacterium tuberculosis H37Rv [6] [µM] | IC50 (human red blood cells) [nM] | hemolysis of human erythrocytes (human red blood cells; peptide at 100 µM) [%]
CC[C@@H](CO)NCCN[C@@H](CC)CO [Ethambutol] | 0.5 µg/mL and 2.5 µM |  |  |  |  |  |  |  | 
CO[C@H]1/C=C/O[C@@]2(C)Oc3c(C)c(O)c4c(O)c(c(/C=N/N5CCN(C)CC5)c(O)c4c3C2=O)NC(=O)/C(C)=C\C=C\[C@H](C)[C@H](O)[C@@H](C)[C@@H](O)[C@@H](C)[C@H](OC(C)=O)[C@@H]1C [Rifampicin] | 0.4 µg/mL and 0.5 µM |  |  |  |  |  |  |  | 
FWGALAKGALKLIGPGSLFSSFSKKD [Pin2 [GPG]] |  | 25 | 30 | 12.5 µM | 12.5 µM | 25 | 29 ± 9 |  | 
FWGALAKGALKLIGSLFSSFSKKD [Pin2 [G]] |  | 12.5 | 100 | 12.5 µM | 12.5 µM | 12.5 | 18.7 | 1400 | 
FWGALAKGALKLIPSLFSSFSKKD [Pin2, Pandinin 2, reference compound] |  | 18.8 | 91 | 12.5 µM | 12.5 µM | 37.5 | 22.1 ± 8.6 | 3300 | 
FWGLKGLKGPGKFSKKL [Pin2 [17]] |  | 25 |  | >25 ^† µM | >25 µM | 80 |  |  | 
FWGLKGLKKFSKKL [Pin2 [14]] |  | 25 |  | 25 µM | >25 ^† µM | >300 | 11.92 ± 3.7 |  | 25
